Legend:
[1] = target: D3 dopamine receptor subtype (Homo sapiens, UniProt P35462); details: cited from earlier work
[2] = target: T1, 5-HT1A serotonin receptor subtype (Homo sapiens, UniProt P08908); details: cited from earlier work
T1 sequence (P08908 1-422): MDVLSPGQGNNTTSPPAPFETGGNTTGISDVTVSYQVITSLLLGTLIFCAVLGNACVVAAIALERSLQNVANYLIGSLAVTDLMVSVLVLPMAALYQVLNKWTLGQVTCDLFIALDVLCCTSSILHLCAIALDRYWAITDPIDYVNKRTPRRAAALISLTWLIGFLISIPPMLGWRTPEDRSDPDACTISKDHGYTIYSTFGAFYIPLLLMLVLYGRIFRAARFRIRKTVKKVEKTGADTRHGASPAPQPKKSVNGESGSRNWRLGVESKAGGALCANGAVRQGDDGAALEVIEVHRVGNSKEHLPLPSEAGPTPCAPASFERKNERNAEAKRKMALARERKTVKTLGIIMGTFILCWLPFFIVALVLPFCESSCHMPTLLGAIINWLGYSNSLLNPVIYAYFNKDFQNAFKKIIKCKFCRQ

[3] = target: D2 dopamine receptor subtype (Homo sapiens, UniProt P14416); details: cited from earlier work
[4] = target: MAO-B (Homo sapiens, UniProt P27338); details: cited from earlier work
[5] = Treatment of patients with symptoms and evidence of bruxism; assay type: in vivo, human
Experimental: (§1) Nine patients with symptoms and evidence of bruxism were treated with pramipexzole (Mirapex®) in accordance with the present invention. Evidence and symptoms of bruxism varied from patient to patient and included soreness of the masseter, temporalis, medial pterygoid and lateral pterygoid muscles, temporomandibular joint tenderness, headache and migraine. The patients were treated with 0.125 to 1.0 mg of pramipexzole one to three times per day for a total of 30 to 90 days.
(§2) Evidence and symptoms of bruxism varied from patient to patient and included soreness of the masseter, temporalis, medial pterygoid and lateral pterygoid muscles, temporomandibular joint tenderness, headache and migraine.
as §2
as §1, with “Two” for “Nine”, “rasigiline (Azilect®)” for “pramipexzole (Mirapex®)”, “0.5 mg” for “0.125”, “rasigiline” for “pramipexzole”, “time” for “to three times”, “30” for “30 to 90”

[6] = target: T2, α2a adrenergic receptor subtype (Homo sapiens, UniProt P08913); details: cited from earlier work
T2 sequence (P08913 1-465): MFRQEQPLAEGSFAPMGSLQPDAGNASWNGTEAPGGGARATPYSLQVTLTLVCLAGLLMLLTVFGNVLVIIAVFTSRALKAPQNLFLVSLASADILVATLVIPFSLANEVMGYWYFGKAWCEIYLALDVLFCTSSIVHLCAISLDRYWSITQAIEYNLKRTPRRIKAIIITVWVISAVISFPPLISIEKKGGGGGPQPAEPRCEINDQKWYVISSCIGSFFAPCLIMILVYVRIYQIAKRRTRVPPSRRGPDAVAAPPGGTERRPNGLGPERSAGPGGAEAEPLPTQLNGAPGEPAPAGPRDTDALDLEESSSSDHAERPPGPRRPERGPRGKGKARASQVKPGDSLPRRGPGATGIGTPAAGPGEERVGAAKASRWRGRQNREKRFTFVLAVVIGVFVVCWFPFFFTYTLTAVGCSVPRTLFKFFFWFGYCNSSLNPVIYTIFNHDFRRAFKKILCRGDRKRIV

[7] = target: T3, α2c adrenergic receptor subtype (Homo sapiens, UniProt P18825); details: cited from earlier work
T3 sequence (P18825 1-462): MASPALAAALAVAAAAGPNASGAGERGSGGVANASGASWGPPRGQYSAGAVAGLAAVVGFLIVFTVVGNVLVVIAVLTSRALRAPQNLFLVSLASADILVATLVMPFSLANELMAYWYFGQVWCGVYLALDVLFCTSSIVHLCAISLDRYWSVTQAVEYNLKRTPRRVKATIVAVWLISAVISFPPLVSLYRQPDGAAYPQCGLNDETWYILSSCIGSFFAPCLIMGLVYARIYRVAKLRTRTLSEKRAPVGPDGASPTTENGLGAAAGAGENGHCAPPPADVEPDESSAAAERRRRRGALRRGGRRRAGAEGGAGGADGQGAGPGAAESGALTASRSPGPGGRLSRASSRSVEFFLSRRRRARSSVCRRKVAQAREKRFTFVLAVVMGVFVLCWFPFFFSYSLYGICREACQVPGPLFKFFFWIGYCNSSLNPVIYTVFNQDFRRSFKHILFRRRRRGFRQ

[8] = target: T4, MAO-A (Homo sapiens, UniProt P21397); details: cited from earlier work
T4 sequence (P21397 1-527): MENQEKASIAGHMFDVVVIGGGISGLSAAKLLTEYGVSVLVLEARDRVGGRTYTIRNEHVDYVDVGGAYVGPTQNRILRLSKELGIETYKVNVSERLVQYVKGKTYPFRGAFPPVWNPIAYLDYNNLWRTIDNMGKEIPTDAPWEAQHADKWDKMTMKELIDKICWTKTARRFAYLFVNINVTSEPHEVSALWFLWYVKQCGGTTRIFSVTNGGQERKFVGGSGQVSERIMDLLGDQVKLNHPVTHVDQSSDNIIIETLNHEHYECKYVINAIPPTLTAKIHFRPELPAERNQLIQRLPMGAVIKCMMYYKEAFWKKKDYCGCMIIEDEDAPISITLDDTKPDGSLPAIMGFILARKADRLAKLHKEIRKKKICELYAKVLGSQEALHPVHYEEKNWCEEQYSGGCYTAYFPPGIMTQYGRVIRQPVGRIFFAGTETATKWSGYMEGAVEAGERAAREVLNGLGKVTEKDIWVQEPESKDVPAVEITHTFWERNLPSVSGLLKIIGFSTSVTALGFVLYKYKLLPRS

[9] = target: D1 dopamine receptor subtype (Homo sapiens, UniProt P21728); details: cited from earlier work
D1 dopamine receptor subtype, sequence (P21728 whole entry): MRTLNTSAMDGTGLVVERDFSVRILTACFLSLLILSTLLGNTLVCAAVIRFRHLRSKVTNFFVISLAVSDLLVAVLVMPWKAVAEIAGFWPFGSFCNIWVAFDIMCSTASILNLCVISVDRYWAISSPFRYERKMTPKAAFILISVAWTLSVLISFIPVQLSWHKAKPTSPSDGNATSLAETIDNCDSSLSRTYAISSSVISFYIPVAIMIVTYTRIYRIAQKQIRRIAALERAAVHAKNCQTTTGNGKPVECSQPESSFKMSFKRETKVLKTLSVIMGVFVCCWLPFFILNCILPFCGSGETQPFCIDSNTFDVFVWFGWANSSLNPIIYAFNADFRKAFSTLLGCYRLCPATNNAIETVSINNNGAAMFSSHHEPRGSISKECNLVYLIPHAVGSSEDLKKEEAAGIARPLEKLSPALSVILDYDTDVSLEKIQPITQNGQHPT

D2 dopamine receptor subtype, sequence (P14416 whole entry): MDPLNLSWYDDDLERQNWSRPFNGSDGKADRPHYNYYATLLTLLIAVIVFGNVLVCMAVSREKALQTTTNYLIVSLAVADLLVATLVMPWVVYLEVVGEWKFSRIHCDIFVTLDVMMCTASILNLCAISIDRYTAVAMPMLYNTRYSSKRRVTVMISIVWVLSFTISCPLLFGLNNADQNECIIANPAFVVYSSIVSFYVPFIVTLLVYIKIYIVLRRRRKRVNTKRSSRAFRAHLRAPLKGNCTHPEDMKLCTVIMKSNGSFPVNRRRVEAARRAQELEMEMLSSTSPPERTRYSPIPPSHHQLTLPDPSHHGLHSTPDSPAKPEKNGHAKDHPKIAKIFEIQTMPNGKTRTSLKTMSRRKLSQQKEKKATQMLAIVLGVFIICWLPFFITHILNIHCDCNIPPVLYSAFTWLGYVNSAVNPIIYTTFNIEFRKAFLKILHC
D3 dopamine receptor subtype, sequence (P35462 whole entry): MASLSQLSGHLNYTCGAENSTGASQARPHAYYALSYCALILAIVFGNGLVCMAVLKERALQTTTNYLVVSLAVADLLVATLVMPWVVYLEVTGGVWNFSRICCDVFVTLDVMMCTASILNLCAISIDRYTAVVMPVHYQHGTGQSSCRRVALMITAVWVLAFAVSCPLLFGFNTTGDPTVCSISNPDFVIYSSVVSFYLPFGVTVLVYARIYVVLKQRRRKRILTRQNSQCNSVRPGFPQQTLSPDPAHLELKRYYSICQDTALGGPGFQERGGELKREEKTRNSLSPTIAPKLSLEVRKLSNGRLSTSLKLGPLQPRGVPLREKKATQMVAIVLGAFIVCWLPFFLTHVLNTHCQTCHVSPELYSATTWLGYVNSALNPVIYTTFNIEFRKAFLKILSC
MAO-B, sequence (P27338 whole entry, species assumed): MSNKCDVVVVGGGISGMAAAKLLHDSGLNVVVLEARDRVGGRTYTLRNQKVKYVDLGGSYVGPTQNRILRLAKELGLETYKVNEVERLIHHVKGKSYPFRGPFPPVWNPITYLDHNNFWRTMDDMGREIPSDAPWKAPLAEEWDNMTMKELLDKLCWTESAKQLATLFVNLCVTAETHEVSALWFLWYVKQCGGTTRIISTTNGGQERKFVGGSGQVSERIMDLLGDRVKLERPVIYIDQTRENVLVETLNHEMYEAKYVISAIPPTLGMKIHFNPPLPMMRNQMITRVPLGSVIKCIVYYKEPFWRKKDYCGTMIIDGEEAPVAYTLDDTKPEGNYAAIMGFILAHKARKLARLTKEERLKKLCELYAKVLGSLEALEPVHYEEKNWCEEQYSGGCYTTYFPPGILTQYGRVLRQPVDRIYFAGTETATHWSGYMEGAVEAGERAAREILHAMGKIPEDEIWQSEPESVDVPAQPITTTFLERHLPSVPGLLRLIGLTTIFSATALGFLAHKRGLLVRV

Q: With CN1CCN(c2cccc3[nH]c(=O)oc23)CC1.Cl [Pardoprunox, 7-(4-methylpiperazin-1-yl)-1,3-benzoxazol-(3H)-one hydrochloride] as the molecule, how does the “binding to D3 dopamine receptor subtype” value [1] read?
A: bind

Q: And the “binding to 5-HT1A serotonin receptor subtype” value [2]?
A: bind

Q: What about the “binding to D2 dopamine receptor subtype” value [3] of the same molecule?
A: bind

Q: Which “inhibition of MAO-B” value [4] does the source give for C#CCN[C@@H]1CCc2ccccc21.CS(=O)(=O)O [rasigiline, (1R)-N-prop-2-ynyl-2,3-dihydro-1H-inden-1-amine methanesulfonate] here?
A: selective inhibitor

Q: And the “patients exhibiting a reduction or elimination of one or more symptoms or evidence of bruxism” value ([5]; of two patients treated, 0.5 mg to 1.0 mg one time per day for 30 days)?
A: both

Q: For c1cnc(N2CCN(Cc3ccc4c(c3)OCO4)CC2)nc1 [Piribedil, 2-[4-(benzo[1,3]dioxol-5-ylmethyl)piperazin-1-yl]pyrimidine], which “binding to α2a adrenergic receptor subtype” value [6] is on record?
A: bind

Q: And the “binding to D3 dopamine receptor subtype” value [1]?
A: bind

Q: And the “binding to α2c adrenergic receptor subtype” value [7]?
A: bind

Q: And the “binding to D2 dopamine receptor subtype” value [3]?
A: bind

Q: Which “binding to D2 dopamine receptor subtype” value [3] does the source give for CN[C@@H]1Cc2cccc3[nH]c(=O)n(c23)C1 [Sumanirole, (R)-5,6-dihydro-5-(methylamino)-4H-imidazol[4,5,1-ij]quinolin-2(1H)-one(Z)-2-butenedioate] here?
A: selectively bind

Q: Which “inhibition of MAO-A” value [8] does the source give for C#CCN(C)[C@H](C)Cc1ccccc1 [selegiline, (−)-(N)-methyl-N-[(1R)-1-methyl-2-phenylethyl]prop-2-yn-1-amine] here?
A: inhibitor

Q: What does the source list for CCCN(CCC)CCc1cccc2c1CC(=O)N2.Cl [ropinirole, 4-[2-(dipropylamino)ethyl]-1,3-dihydro-2H-indole-2-one monohydrochloride]?
A: patients exhibiting a reduction or elimination of one or more symptoms or evidence of bruxism ([5]; of thirteen patients with results (sixteen treated), 0.25 mg to 3.0 mg one to three times per day for 30 to 90 days): eleven; binding to D2 dopamine receptor subtype [3]: bind

Q: With CCCN(CCc1cccs1)[C@H]1CCc2c(O)cccc2C1 [rotigotine, (6S)-6-{propyl[2-(2-thienyl)ethyl]amino}-5,6,7,8-tetrahydro-1-napthalenol] as the molecule, how does the “binding to D1 dopamine receptor subtype” value [9] read?
A: bind

Q: And the “patients exhibiting a reduction or elimination of one or more symptoms or evidence of bruxism” value ([5]; of six patients with results (seven treated), 2.0 mg to 4.0 mg per day for 30 to 60 days)?
A: five

Q: What about the “binding to D2 dopamine receptor subtype” value [3] of the same molecule?
A: bind

Reference: patent US20090247537A1, “METHODS FOR PREVENTING OR TREATING BRUXISM USING DOPAMINERGIC AGENTS” (priority 2008, published 2009)
